Tests used:
Caco-2 cell line = assay: Cytotoxicity MTS assay, Caco-2 cell line; type: cell-based; details: for OD490 Mean / OD490 Well 1 / OD490 Well 2 / OD490 Well 3: Caco-2 cell line
Procedure: (§1) The positive compounds (IC50 < 100 μM) obtained from the primary Eg5 motor protein ATPase assay were tested for antiproliferative activity in vitro against Caco-2 cell line, Hela cell line, L929 cell line and T24 cell line by performing MTS assay. Cells were introduced into 96-well plates at a density of 1000 cells per well. After 24 h incubation, the cells were exposed with compounds at final concentrations ranging from 0.5 to 100 µM for 24 h. DMSO was used at a final concentration of 0.025% as blank control, monastrol was used as the positive control. Then 20 µL (CellTiter 96® AQueous One Solution Promega, Madison, WI, USA) reagent was added in each well. After 2 h at 37 °C in a 80% humidified, 5% CO2 atmosphere, the absorbance at 490 nm was recorded using a microplate reader (BIO-RAD iMark^TM). The results were obtained in three independent duplicate experiments. The primary data were shown in Supplementary Materials Tables S4–S7. The IC50 values for these compounds were calculated from a non-linear regression graph plotted between the percentage of cell viability and concentration with SPSS17.0 software.

Hela cell line = assay: Cytotoxicity MTS assay, Hela cell line; type: cell-based; details: for OD490 value, Mean / OD490 value, Well 1 / OD490 value, Well 2 / OD490 value, Well 3: Hela cell line, MTS
Procedure: as §1

## CCOc1ccccc1C1NC(=S)NC(C)=C1C(=O)Nc1ccc(Cl)cc1 (centres unmarked) [C9]
Caco-2 cell line; 0.5μM, first assay
  OD490 Mean: 0.6579
  OD490 Well 1: 0.6600
  OD490 Well 2: 0.6452
  OD490 Well 3: 0.6685
Caco-2 cell line; 0.5μM, second assay
  OD490 Mean: 0.6430
  OD490 Well 1: 0.6499
  OD490 Well 2: 0.6217
  OD490 Well 3: 0.6574
Caco-2 cell line; 0.5μM, third assay
  OD490 Mean: 0.6809
  OD490 Well 1: 0.6676
  OD490 Well 2: 0.6999
  OD490 Well 3: 0.6752
Caco-2 cell line; 1μM, first assay
  OD490 Mean: 0.6557
  OD490 Well 1: 0.6594
  OD490 Well 2: 0.6683
  OD490 Well 3: 0.6393
Caco-2 cell line; 1μM, second assay
  OD490 Mean: 0.6328
  OD490 Well 1: 0.6398
  OD490 Well 2: 0.6387
  OD490 Well 3: 0.6200
Caco-2 cell line; 1μM, third assay
  OD490 Mean: 0.6578
  OD490 Well 1: 0.6898
  OD490 Well 2: 0.6914
  OD490 Well 3: 0.5921
Caco-2 cell line; 10μM, first assay
  OD490 Mean: 0.6390
  OD490 Well 1: 0.5664
  OD490 Well 2: 0.6539
  OD490 Well 3: 0.6968
Caco-2 cell line; 10μM, second assay
  OD490 Mean: 0.5939
  OD490 Well 1: 0.5553
  OD490 Well 2: 0.5431
  OD490 Well 3: 0.6832
Caco-2 cell line; 10μM, third assay
  OD490 Mean: 0.6521
  OD490 Well 1: 0.6349
  OD490 Well 2: 0.6214
  OD490 Well 3: 0.7001
Caco-2 cell line; 25μM, first assay
  OD490 Mean: 0.5635
  OD490 Well 1: 0.5780
  OD490 Well 2: 0.5488
  OD490 Well 3: 0.5637
Caco-2 cell line; 25μM, second assay
  OD490 Mean: 0.5347
  OD490 Well 1: 0.5232
  OD490 Well 2: 0.5214
  OD490 Well 3: 0.5594
Caco-2 cell line; 25μM, third assay
  OD490 Mean: 0.6041
  OD490 Well 1: 0.6789
  OD490 Well 2: 0.5214
  OD490 Well 3: 0.6121
Caco-2 cell line; 50μM, first assay
  OD490 Mean: 0.4407
  OD490 Well 1: 0.4378
  OD490 Well 2: 0.4511
  OD490 Well 3: 0.4331
Caco-2 cell line; 50μM, second assay
  OD490 Mean: 0.4117
  OD490 Well 1: 0.3953
  OD490 Well 2: 0.4678
  OD490 Well 3: 0.3721
Caco-2 cell line; 50μM, third assay
  OD490 Mean: 0.4510
  OD490 Well 1: 0.4963
  OD490 Well 2: 0.3954
  OD490 Well 3: 0.4613
Caco-2 cell line; 100μM, first assay
  OD490 Mean: 0.3208
  OD490 Well 1: 0.2950
  OD490 Well 2: 0.3313
  OD490 Well 3: 0.3360
Caco-2 cell line; 100μM, second assay
  OD490 Mean: 0.2995
  OD490 Well 1: 0.2898
  OD490 Well 2: 0.3121
  OD490 Well 3: 0.2965
Caco-2 cell line; 100μM, third assay
  OD490 Mean: 0.3309
  OD490 Well 1: 0.3633
  OD490 Well 2: 0.2374
  OD490 Well 3: 0.3921
Caco-2 cell line; Homo sapiens, Caco-2, MTS assay, 24 h exposure
  IC50: 65.8 µM
Hela cell line; 0.5μM, first assay
  OD490 value, Mean: 2.5086
  OD490 value, Well 1: 2.5337
  OD490 value, Well 2: 2.5147
  OD490 value, Well 3: 2.4773
Hela cell line; 0.5μM, second assay
  OD490 value, Mean: 2.5027
  OD490 value, Well 1: 2.5377
  OD490 value, Well 2: 2.5102
  OD490 value, Well 3: 2.4603
Hela cell line; 0.5μM, third assay
  OD490 value, Mean: 2.5209
  OD490 value, Well 1: 2.7845
  OD490 value, Well 2: 2.5536
  OD490 value, Well 3: 2.2245
Hela cell line; 1μM, first assay
  OD490 value, Mean: 2.3583
  OD490 value, Well 1: 2.1436
  OD490 value, Well 2: 2.5164
  OD490 value, Well 3: 2.4149
Hela cell line; 1μM, second assay
  OD490 value, Mean: 2.3955
  OD490 value, Well 1: 2.2145
  OD490 value, Well 2: 2.4935
  OD490 value, Well 3: 2.4784
Hela cell line; 1μM, third assay
  OD490 value, Mean: 2.4734
  OD490 value, Well 1: 2.4685
  OD490 value, Well 2: 2.5532
  OD490 value, Well 3: 2.3985
Hela cell line; 10μM, first assay
  OD490 value, Mean: 2.3086
  OD490 value, Well 1: 2.1660
  OD490 value, Well 2: 2.3778
  OD490 value, Well 3: 2.3820
Hela cell line; 10μM, second assay
  OD490 value, Mean: 2.1859
  OD490 value, Well 1: 2.2135
  OD490 value, Well 2: 2.1456
  OD490 value, Well 3: 2.1987
Hela cell line; 10μM, third assay
  OD490 value, Mean: 2.4047
  OD490 value, Well 1: 2.2123
  OD490 value, Well 2: 2.5652
  OD490 value, Well 3: 2.4365
Hela cell line; 25μM, first assay
  OD490 value, Mean: 1.8211
  OD490 value, Well 1: 1.4666
  OD490 value, Well 2: 1.9622
  OD490 value, Well 3: 2.0346
Hela cell line; 25μM, second assay
  OD490 value, Mean: 1.8416
  OD490 value, Well 1: 1.7589
  OD490 value, Well 2: 1.8637
  OD490 value, Well 3: 1.9021
Hela cell line; 25μM, third assay
  OD490 value, Mean: 1.8662
  OD490 value, Well 1: 1.7769
  OD490 value, Well 2: 1.8252
  OD490 value, Well 3: 1.9965
Hela cell line; 50μM, first assay
  OD490 value, Mean: 1.6538
  OD490 value, Well 1: 1.2953
  OD490 value, Well 2: 1.8006
  OD490 value, Well 3: 1.8654
Hela cell line; 50μM, second assay
  OD490 value, Mean: 1.6346
  OD490 value, Well 1: 1.5694
  OD490 value, Well 2: 1.6357
  OD490 value, Well 3: 1.6987
Hela cell line; 50μM, third assay
  OD490 value, Mean: 1.6911
  OD490 value, Well 1: 1.6532
  OD490 value, Well 2: 1.7755
  OD490 value, Well 3: 1.6445
Hela cell line; 100μM, first assay
  OD490 value, Mean: 1.1310
  OD490 value, Well 1: 0.9154
  OD490 value, Well 2: 1.2917
  OD490 value, Well 3: 1.1859
Hela cell line; 100μM, second assay
  OD490 value, Mean: 1.0983
  OD490 value, Well 1: 1.1234
  OD490 value, Well 2: 1.1125
  OD490 value, Well 3: 1.0589
Hela cell line; 100μM, third assay
  OD490 value, Mean: 1.1051
  OD490 value, Well 1: 1.0232
  OD490 value, Well 2: 1.1136
  OD490 value, Well 3: 1.1784
Hela cell line; Homo sapiens, HeLa, 24 h, MTS assay, 24 h exposure
  IC50: 75.6 µM

Reference: PMC8037182, “Solvothermal Synthesis of Multiple Dihydropyrimidinones at a Time as Inhibitors of Eg5” (Molecules, 2021)
